Where a name gives a salt, the structure may show the parent alone.
Experiments:
[1] = target: T1, human chemokine receptor CCR3 (Homo sapiens, UniProt P51677); assay: CCR3 receptor binding assay (SPA, 125I-eotaxin-1, membranes of hCCR3 transfected K562 cells); settings: CCR3-Receptor Binding Protocol, radioligand 125I-eotaxin-1; read-out: Affinity (Ki-value)
T1 construct: expressed in transfected cells; host or cells: K562 cells (membrane preparation)
T1 sequence (P51677 1-355): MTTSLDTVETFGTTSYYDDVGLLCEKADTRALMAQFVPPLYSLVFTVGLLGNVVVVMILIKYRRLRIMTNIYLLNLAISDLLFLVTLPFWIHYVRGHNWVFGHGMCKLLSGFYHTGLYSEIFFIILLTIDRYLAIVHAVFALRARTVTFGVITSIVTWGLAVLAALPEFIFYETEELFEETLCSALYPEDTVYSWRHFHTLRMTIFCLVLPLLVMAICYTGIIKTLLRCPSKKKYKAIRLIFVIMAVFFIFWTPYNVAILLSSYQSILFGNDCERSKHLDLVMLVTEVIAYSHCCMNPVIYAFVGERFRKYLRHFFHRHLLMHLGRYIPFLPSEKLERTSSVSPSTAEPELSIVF
Excerpt: Cell lines for expressing the receptor of interest include those naturally expressing the chemokine receptor, such as EOL-3 or THP-1, those induced to express the chemokine receptor by the addition of chemical or protein agents, such as HL-60 or AML14.3D10 cells treated with, for example, butyric acid with interleukin-5 present, or a cell engineered to express a recombinant chemokine receptor, such as CHO or HEK-293. Finally, blood or tissue cells, for example human peripheral blood eosinophils, isolated using methods as described by Hansel et al., J. Immunol. Methods, 145, 105–110 (1991), can be utilized in such assays. In particular, the compound of the present invention have activity in binding to the CCR-3 receptor in the aforementioned assays. […] Such a result is indicative of the intrinsic activity of the compounds as modulators of chemokine receptor activity. A general binding protocol is described below.
CCR3-Receptor Binding Protocol
The CCR3 receptor binding test is based on a K562 cell line (leukemia myelogenic blast cells ) transfected with the human chemokine receptor CCR3 (hCCR3-C1). The cell membranes were prepared by disrupting the hCCR3 transfected K562 cells by nitrogen […] and centrifugation at 40000 g, 4° C. for 1 h. The membranes were re-suspended in the SPA incubation buffer (see below) without bovine serum albumin for storage in aliquots at −80° C.
The CCR3 receptor binding assay with the radioligand ^125Jodine-eotaxin-1 was performed in a Scintillation Proximity Assay (SPA) design. Cell membranes of hCCR3 C1 cells were diluted in suitable concentrations (0.5–5 ug protein/well ) in 96 well microtiter plates (1450–401, Wallac).
The test incubation mixture comprising 60 μl of the membrane suspension, 80 μl of the Wheat Germ Agglutinin coated PVT beads (organic scintillator, Amersham Pharmacia biotech) in a concentration of 0.4 mg and 40 μl of radiolabelled ^125J rhEotaxin (Amersham, IM290) were incubated with 20 μl of the test compound (dissolved in DMSO dilutions ) for 2 hours. The SPA incubation buffer contained 25 mM HEPES, 25 mM MgCl2 6×H2O, 1 mM CaCl2 2×H2O and 0.1% bovine serum albumin. Included were controls for specific binding (no displacer added) and non-specific binding by adding unlabelled rhEotaxin (R&D Systems) or a test compound. Bound radioactivity was determined by scintillation counter (Micro Beta “Trilux”, Wallac). Determination of affinity of test compounds (dissociation constant Ki) was calculated by iterative fitting of experimental data using the law of mass action based program “easy sys” (Schittkowski, Num Math 68, 129–142 (1994)).

melting point [°C]	Ki [1] [nM]	Structure (SMILES)
285		Fc1ccccc1/C=C1\CCN2Cc3ccccc3N=C12 (as salt: HCl) [Example 106]
> 300		CN(C)c1ccc(/C=C2\CCN3Cc4ccccc4N=C23)c(Cl)c1 (as salt: HCl) [Example 107]
109 to 110		FC(F)(F)c1ccccc1/C=C1\CCN2Cc3ccccc3N=C12 (as salt: HCl) [Example 108]
257		CCc1ccccc1C=C1CCN2Cc3ccccc3N=C12 (as salt: HCl) [Example 110]
255 to 256		C(=C1/CCN2Cc3ccccc3N=C12)/c1ccccc1-c1ccccc1 (as salt: HCl) [Example 117]
225		FC(F)(F)Oc1ccccc1C=C1CCN2Cc3ccccc3N=C12 (as salt: HCl) [Example 122]
224 to 225		CCc1ccccc1C=C1CCN2Cc3ccccc3N=C12 (as salt: hydrochloride) [Example 127, 3-(2-Ethylbenzylidene)-1,2,3,9-tetrahydro-pyrrolo[2,1-b]quinazoline]
	1 to 100	Brc1ccccc1C=C1CCN2Cc3ccccc3N=C12 [Example 101, 3-(2-Bromobenzylidene)-1,2,3,9-tetrahydro-pyrrolo[2,1-b]quinazoline]
214 to 219	1000 to 10000	Clc1ccccc1/C=C1\CCN2Cc3cc(Br)cc(Br)c3N=C12 [Example 102]
190 to 191	1 to 100	Clc1ccccc1C=C1CCN2Cc3ccccc3N=C12 [Example 103]
198 to 199	1000 to 10000	Clc1cccc(Cl)c1C=C1CCN2Cc3ccccc3N=C12 [Example 105]
	1000 to 10000	Fc1ccccc1/C=C1\CCN2Cc3ccccc3N=C12 [Example 106]
	1000 to 10000	CN(C)c1ccc(/C=C2\CCN3Cc4ccccc4N=C23)c(Cl)c1 [Example 107]
	1000 to 10000	FC(F)(F)c1ccccc1/C=C1\CCN2Cc3ccccc3N=C12 [Example 108]
	1000 to 10000	CCc1ccccc1C=C1CCN2Cc3ccccc3N=C12 [Example 110]
205	1000 to 10000	CN(C)c1ccc(/C=C2\CCN3Cc4ccccc4N=C23)cc1 [Example 111]
200	100 to 1000	Clc1ccc(/C=C2\CCN3Cc4ccccc4N=C23)cc1Cl [Example 112]
157 to 158	1000 to 10000	CCOc1ccccc1/C=C1\CCN2Cc3ccccc3N=C12 [Example 113]
208 to 210	1000 to 10000	C(=C1/CCN2Cc3ccccc3N=C12)/c1cccs1 [Example 114]
170	1000 to 10000	C(=C1CCN2Cc3ccccc3N=C12)c1ccco1 [Example 115]

melting point [°C]	Ki [1] [nM]	Structure (SMILES)
208 to 209	1000 to 10000	C(=C1/CCN2Cc3ccccc3N=C12)/c1ccsc1 [Example 116]
	1000 to 10000	C(=C1/CCN2Cc3ccccc3N=C12)/c1ccccc1-c1ccccc1 [Example 117]
202 to 203	100 to 1000	Fc1ccc(C=C2CCN3Cc4ccccc4N=C23)c(Cl)c1 [Example 118]
174 to 175	1000 to 10000	COc1ccc(/C=C2\CCN3Cc4ccccc4N=C23)cc1C [Example 119]
187 to 188	1000 to 10000	Clc1ccc(C=C2CCN3Cc4ccccc4N=C23)c(Cl)c1 [Example 120]
	1000 to 10000	FC(F)(F)Oc1ccccc1C=C1CCN2Cc3ccccc3N=C12 [Example 122]
252 to 255	1000 to 10000	Brc1cccc2cccc(C=C3CCN4Cc5ccccc5N=C34)c12 [Example 124]
242 to 248	1000 to 10000	Clc1ccccc1C=C1CCCN2Cc3ccccc3N=C12 [Example 126, 6-(2-Chlorobenzylidene)-6,8,9,11-tetrahydro-7H-pyrido[2,1-b]quinazoline]
	1 to 100	N=c1c2ccccc2nc2n1CCC2=Cc1ccccc1Br [Example 201, 3-(2-Bromobenzylidene)-9-imino-2,3-dihydro-1H-pyrrolo[2,1-b]quinazoline]
202 to 203	1 to 100	N=c1c2ccccc2nc2n1CC/C2=C\c1ccccc1Cl [Example 202]
	1 to 100	N=c1c2ccccc2nc2n1CC/C2=C\c1ccccc1I [Example 203]
	100 to 1000	CCc1ccccc1/C=C1\CCn2c1nc1ccccc1c2=N [Example 204]
175 to 177	1000 to 10000	COc1ccc(C=C2CCn3c2nc2ccccc2c3=N)cc1 [Example 205]
192 to 194	100 to 1000	COc1cc2nc3n(c(=N)c2cc1OC)CC/C3=C\c1ccccc1Br [Example 206]
232	100 to 1000	N=c1c2cccnc2nc2n1CC/C2=C\c1ccccc1Br [Example 208]
183 to 184	1 to 100	N=c1c2ccsc2nc2n1CCC2=Cc1ccccc1Br [Example 301, 7-(2-Bromobenzylidene)-6,7-dihydro-5H-1-thia-4a,8-diazo-s-indacen-4-ylideneamine]
180	100 to 1000	Cc1sc2nc3n(c(=N)c2c1C)CC/C3=C\c1ccccc1Br [Example 303]
209	100 to 1000	N=c1c2c(C3CC3)csc2nc2n1CC/C2=C\c1ccccc1Br [Example 305]
> 290	100 to 1000	Cc1oc2nc3n(c(=N)c2c1C)CC/C3=C\c1ccccc1Br [Example 306]

Reference: US7214703B2, “Pyrrolidinohydrochinazolines” (Boehringer Ingelheim International GmbH, priority 2003, dated 2007)
